These results are taken from patent US6534524B1, “Indazole compounds and pharmaceutical compositions for inhibiting protein kinases, and methods for their use” (Agouron Pharmaceuticals, Inc., priority 1999, dated 2003).

A short description of data set [1]: Determination of inhibitor concentration in mouse plasma after intraperitoneal and oral dosing. It is filed as in vivo. Conditions: PO; for concentration at 7 h: read-out: Cmin (7 hr conc.). Here is the method: Blood collection was via ocular bleed at 0.5, 1, 4 hr with the final time point, 7 hour, via intracardiac puncture. The blood was centrifuged to collect plasma, which was then stored at −80° C. until analysis. Samples were prepared for analysis using an internal standard and sodium hydroxide. After vortexing, ethyl acetate was added and mixed for 15-20 minutes at ambient temperature. […] The samples were then analyzed via HPLC or LC-MS. Compound levels were quantitated by generating a standard curve of known compound concentration in mouse plasma.

Data set [2] deals with human umbilical vein endothelial cells (HUVEC). Briefly: HUVEC proliferation assay (VEGF-stimulated, MTT).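 As to % inhibition of the proliferation of HUVEC: relative to VEGF-stimulated control minus starvation-medium baseline.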 It is filed as cell-based. As to conditions: for % inhibition: Library III, HUVEC proliferation, nominal concentration of 0.5 nM; for % inhibition / % inhibition of the proliferation of HUVEC: crude reaction mixtures; for pIC50: Homo sapiens, HUVEC, + albumin, read-out: HUVEC + albumin IC50.

Setting [3] is: female, 8 mg/kg, vehicle 0.5% CMC.
Setting [4] is: female, 40 mg/kg, vehicle 0.5% CMC.
Setting [5] is: female, 200 mg/kg, vehicle 0.5% CMC.
Where [6] appears, read: 25 mg/kg, vehicle PEG400:H2O pH 2.3 30:70.
[7] abbreviates: Library I, Y = CO, nominal concentration of 10 nM.
Where [8] appears, read: Library I, Y = NH, nominal concentration of 10 nM.
Where [9] appears, read: Library I, Y = O, nominal concentration of 10 nM.
[10] abbreviates: Library II, Y=S, 0.5 mM (column head; text: nominal 0.5 nM).
Setting [11] is: Library II, Y=S, 2 mM (column head; text: nominal 2 nM).

pIC50: −log10 of the molar value. Read-outs that look alike come from different tables or passages of the source. Where only a bound is given, the exact number is not on record here.

On to `CCn1nc(C)cc1C(=O)Nc1cc(Nc2ccc3c(/C=C/c4ccccn4)n[nH]c3c2)c(F)cc1C.Cl` [Example 59(c), 6-[N-(5-((1-Ethyl-3-methyl-1H-pyrazol-5-yl)carboxamido)-2-fluoro-4-methylphenyl)amino]-3-E-[2-(pyridin-2-yl)ethenyl]-1H-indazole Hydrochloride], for which the exposure AUC(0-t) – broadly, the area under the concentration-time curve up to a stated or last time point – in data set [1] (female, 25 mg/kg, vehicle CMC) was 327 µg·h/mL. Further, in data set [1] (female, 25 mg/kg, vehicle CMC, read-out: Cmax), the Cmax (commonly the maximum level reached in the sampled fluid or tissue) came to 50000 ng/mL.
Regarding `Cc1cc(C(=O)Nc2cc(Nc3ccc4c(/C=C/c5ccccn5)n[nH]c4c3)ccc2F)n(C)n1.Cl` [Example 59(d), 6-[N-(3-((1,3-Dimethyl-1H-pyrazol-5-yl)carboxamido)4-fluoro-phenyl)amino]-3-E-[2-(pyridin-2-yl)ethenyl]-1H-indazole Hydrochloride], the results for the AUC(0-t) in data set [1] (setting [3]), in data set [1] (setting [4]) and in data set [1] (setting [5]) were more than 24.7 µg·h/mL, more than 32.3 µg·h/mL and more than 123 µg·h/mL, respectively. Further, the Cmax in data set [1] (female, 8 mg/kg, vehicle 0.5% CMC, read-out: Cmax) was more than 5000 ng/mL; in data set [1] (female, 40 mg/kg, vehicle 0.5% CMC, read-out: Cmax) it was more than 5000 ng/mL; in data set [1] (female, 200 mg/kg, vehicle 0.5% CMC, read-out: Cmax), more than 20000 ng/mL. For the same compound, the concentration at 7 h in data set [1] (setting [3]) came out at 1900 ng/mL; in data set [1] (setting [4]) it was 4140 ng/mL; in data set [1] (setting [5]), 12700 ng/mL.
Consider `CC(C)COC(=O)Nc1cccc(C(=O)c2ccc3c(/C=C/c4ccccn4)n[nH]c3c2)c1` [Example 41(y)], for which, in data set [1] (setting [6]), the AUClast result is recorded as “Blq”, the Cmax result is on record as “Blq”, the “Cmin (7 hr conc.)” value is given as “blq” and the “plasma half-life (T1/2)” value is listed as “blq”.
Regarding `Cc1cnc(CNC(=O)c2ccccc2Sc2ccc3c(/C=C/c4ccccn4)n[nH]c3c2)cn1`, in data set [2], the % inhibition (as a rule, the drop in the measured response relative to a control, in per cent) is given as 6%.
`NC(=O)c1ccccc1Sc1ccc2c(/C=C/c3ccccn3)n[nH]c2c1` [Example 35(d), 6-(2-Carbamoylphenylsulfanyl)-3-E-[2-(pyridin-2-yl)ethenyl]-1H-indazole]: the negative-log IC50 (pIC50) (usually the negative decadic logarithm of the IC50, by convention in mol/L) in data set [2] is less than 7.00.
Turning to `O=C(Nc1ccc2c(O)cccc2c1)c1ccccc1Sc1ccc2c(/C=C/c3ccccn3)n[nH]c2c1`, the “% inhibition” value in data set [2] was −26%.
The same measure, in the same setting: next, `O=C(NCCc1ccc(F)cc1)c1ccccc1Sc1ccc2c(/C=C/c3ccccn3)n[nH]c2c1`: 3%; `NC(=O)c1ccc(NC(=O)c2ccccc2Sc2ccc3c(/C=C/c4ccccn4)n[nH]c3c2)nc1`: −2%.
Take `NC(=O)C1CCN(C(=O)c2ccc3c(-c4nc5ccccc5[nH]4)n[nH]c3c2)CC1`: the “% inhibition of the proliferation of HUVEC” value (“% inhibition … of HUVEC” for short) worked out at 44% in data set [2] (setting [7]), 5% in data set [2] (setting [8]) and 82% in data set [2] (setting [9]).
On to `CC(=O)c1ccc(NC(=O)c2ccccc2Sc2ccc3c(/C=C/c4ccccn4)n[nH]c3c2)cc1`, for which the “% inhibition” value in data set [2] stood at 6%.
Still for that read-out and setting: with `O=C(Nc1ccc(C2CCCCC2)cc1)c1ccccc1Sc1ccc2c(/C=C/c3ccccn3)n[nH]c2c1` the figure was 1%.
For the compound `CS(=O)(=O)NNC(=O)c1ccccc1Sc1ccc2c(/C=C/c3ccccn3)n[nH]c2c1`, the “% inhibition … of HUVEC” value in data set [2] (setting [10]) stood at 9%; in data set [2] (setting [11]) it was 1%.
For `O=C(NCCCN1CCOCC1)c1ccccc1Sc1ccc2c(/C=C/c3ccccn3)n[nH]c2c1`, in that order: 5% and 14%.
For the compound `O=C(Nc1cccc2cccnc12)c1ccccc1Sc1ccc2c(/C=C/c3ccccn3)n[nH]c2c1`, the “% inhibition” value in data set [2] turned out to be 3%.
The same measure, in the same setting: next, `O=Nc1c(O)nc(O)nc1NC(=O)c1ccccc1Sc1ccc2c(/C=C/c3ccccn3)n[nH]c2c1`: −18%; `O=C(Nc1cccc(O)c1)c1ccccc1Sc1ccc2c(/C=C/c3ccccn3)n[nH]c2c1`: −6%; `COC(=O)c1ccc(NC(=O)c2ccccc2Sc2ccc3c(/C=C/c4ccccn4)n[nH]c3c2)c(C)c1`: −46%.
Still for that read-out and setting: next, `N/C(=N\O)c1[nH]cnc1NC(=O)c1ccccc1Sc1ccc2c(/C=C/c3ccccn3)n[nH]c2c1`: −15%; `O=C(Nc1ccccc1-n1cccc1)c1ccccc1Sc1ccc2c(/C=C/c3ccccn3)n[nH]c2c1`: −7%.
Regarding `NS(=O)(=O)c1ccc(CNC(=O)c2ccccc2Sc2ccc3c(/C=C/c4ccccn4)n[nH]c3c2)cc1`, the “% inhibition … of HUVEC” value in data set [2] (setting [10]) came to 1%; in data set [2] (setting [11]), 13%.
Regarding `O=C(N/N=C/c1ccccn1)c1ccccc1Sc1ccc2c(/C=C/c3ccccn3)n[nH]c2c1` [Example 36(b)], the pIC50 in data set [2] was less than 7.52.
In the case of `CC(=O)Nc1ccc(NC(=O)c2ccccc2Sc2ccc3c(/C=C/c4ccccn4)n[nH]c3c2)cc1`, the “% inhibition” value in data set [2] is −4%.
Same read-out and setting: next, `O=C(Nc1ncnc2[nH]cnc12)c1ccccc1Sc1ccc2c(/C=C/c3ccccn3)n[nH]c2c1`: 18%.
On to `CC(C)CC(CO)NC(=O)c1ccccc1Sc1ccc2c(C=Cc3ccccn3)n[nH]c2c1` (stereo not drawn) [drawing 1015], for which, in data set [2] (0.0005 µM), the “% inhibition” value is on record as −13%.
Regarding `CSc1cccc(NC(=O)c2ccccc2Sc2ccc3c(/C=C/c4ccccn4)n[nH]c3c2)c1`, in data set [2], the “% inhibition” value worked out at 8%.
On the same count and under the same terms, next, `CC(C)Oc1cccc(NC(=O)c2ccccc2Sc2ccc3c(/C=C/c4ccccn4)n[nH]c3c2)c1`: 1%.
In the case of `CC(=O)NCCNC(=O)c1ccc2c(-c3nc4ccccc4[nH]3)n[nH]c2c1`, the “% inhibition … of HUVEC” value in data set [2] (setting [7]) is on record as 14%; in data set [2] (setting [8]), 12%; in data set [2] (setting [9]) it was 90%.
Consider `O=C(NCC1CC1)c1ccccc1Sc1ccc2c(/C=C/c3ccccn3)n[nH]c2c1` [drawing 758], for which the figures for the “% inhibition … of HUVEC” value in data set [2] (setting [10]) and in data set [2] (setting [11]) were 35% and 69%, respectively.
For `O=C(c1ccc2c(-c3nc4ccccc4[nH]3)n[nH]c2c1)N1CCN(C(=O)c2ccco2)CC1`, the results for the “% inhibition … of HUVEC” value in data set [2] (setting [7]), in data set [2] (setting [8]) and in data set [2] (setting [9]) were −20%, 6% and 25%, respectively.
As for `O=C(Nc1ccccn1)c1ccccc1Sc1ccc2c(/C=C/c3ccccn3)n[nH]c2c1`, the “% inhibition” value in data set [2] is on record as −31%.
On to `CC1CCCC(NC(=O)c2ccccc2Sc2ccc3c(/C=C/c4ccccn4)n[nH]c3c2)C1` (stereo not drawn), for which the “% inhibition … of HUVEC” value in data set [2] (setting [10]) stood at 69%; in data set [2] (setting [11]), 59%.
Consider `COC1C=CC(CNC(=O)c2ccccc2Sc2ccc3c(/C=C/c4ccccn4)n[nH]c3c2)(OC)O1` (stereo not drawn), for which, in data set [2], the “% inhibition” value was determined as 0%.
The same measure, in the same setting: next, `O=C(Nc1ccc(CCO)cc1)c1ccccc1Sc1ccc2c(/C=C/c3ccccn3)n[nH]c2c1`: 10%.
On to `CN(C)CC(C)(C)CNC(=O)c1ccccc1Sc1ccc2c(/C=C/c3ccccn3)n[nH]c2c1`, for which the figures for the “% inhibition … of HUVEC” value in data set [2] (setting [10]) and in data set [2] (setting [11]) were 38% and 5%, respectively.
Take `O=C(NCCc1c[nH]c2ccccc12)c1ccccc1Sc1ccc2c(/C=C/c3ccccn3)n[nH]c2c1`: the “% inhibition” value in data set [2] is given as 18%.
Still for that read-out and setting: next, `CC(CO)(CO)NC(=O)c1ccccc1Sc1ccc2c(/C=C/c3ccccn3)n[nH]c2c1`: −18%.
